Holding throughout (assay type): in vivo
Assay [1] has as its system cocklebur (Xanthium strumarium). The assay can be described thus: Preemergence herbicidal activity. The conditions noted are these: 17.5 g/Ha; scored after 3 weeks; 0 no injury, 100 complete kill or no germination. Here is the method: (§1) The soil matrix was contained in plastic pots with a surface area of 161 square centimeters. When required to ensure good germination and healthy plants, a fungicide treatment and/or other chemical or physical treatment was applied. A weighed amount, determined by the highest rate to be tested, of each test compound was placed in a 20 mL glass vial and was dissolved in 8 mL of a 97:3 v/v (volume/volume) mixture of acetone and dimethyl sulfoxide to obtain concentrated stock solutions. […] The stock solutions obtained were diluted with a 99.9:0.1 mixture of water and Tween® 155 surfactant (ethoxylated sorbitan fatty acid ester) to obtain application solutions of known concentration. The solutions containing the highest concentration to be tested were prepared by diluting 4 mL aliquots of the stock solution with 8.5 mL of the mixture and lower concentrations were prepared by dilution of appropriate smaller portions of the stock solution. A 2.5 mL aliquot of each solution of known concentration was sprayed evenly onto the soil of each seeded pot using a Cornwall 5.0 mL glass syringe fitted with a TeeJet TN-3 hollow cone nozzle to obtain thorough coverage of the soil in each pot. Control pots were sprayed in the same manner with the aqueous mixture. A highest application rate of 4.48 kg/ha is achieved when 50 mg of test compound is employed. The treated pots and control pots were placed in a greenhouse with an approximately 15 hr photoperiod which was maintained at about 23-29° C. during the day and 22-28° C. during the night. Nutrients and water were added on a regular basis and supplemental lighting was provided with overhead metal halide 1000 Watt lamps as necessary. The water was added by top-irrigation. After 3 weeks the condition of the test plants that germinated and grew as compared with that of the untreated plants that germinated and grew was determined visually and scored on a scale of 0 to 100 percent where 0 corresponds to no injury and 100 corresponds to complete kill or no germination.

The test system of assay [2] is blackgrass (Alopecurus myosuroides). The assay can be described thus: Preemergence herbicidal activity. Particulars: 17.5 g/Ha; scored after 3 weeks; 0 no injury, 100 complete kill or no germination. Here is the method:
as §1

Assay [3] deals with velvetleaf (Abutilion theophrasti). The assay can be described thus: Preemergence herbicidal activity. Particulars: 17.5 g/Ha; scored after 3 weeks; 0 no injury, 100 complete kill or no germination. The procedure: as §1
Assay [4] has as its system Rox orange sorghum (Sorghum bicolor). The assay can be described thus: Preemergence herbicidal activity. Particulars: 17.5 g/Ha; scored after 3 weeks; 0 no injury, 100 complete kill or no germination. Here is the method:
as §1

The subject of assay [5] is barnyardgrass (Echinochloa crus-galli). Kind of assay: Preemergence herbicidal activity. Particulars: 17.5 g/Ha; scored after 3 weeks; 0 no injury, 100 complete kill or no germination. Here is the method: as §1
For assay [6], the system named is wild poinsettia (Euphorbia heterophylla). The assay can be described thus: Preemergence herbicidal activity. The conditions noted are these: 17.5 g/Ha; scored after 3 weeks; 0 no injury, 100 complete kill or no germination. Here is the method: as §1
Assay [7] concerns lambsquarters (Chenopodium album). The assay can be described thus: Preemergence herbicidal activity. Particulars: 17.5 g/Ha; scored after 3 weeks; 0 no injury, 100 complete kill or no germination. Here is the method: as §1
The subject of assay [8] is giant foxtail (Setaria faberi). The assay can be described thus: Preemergence herbicidal activity. The conditions noted are these: 17.5 g/Ha; scored after 3 weeks; 0 no injury, 100 complete kill or no germination. The procedure:
as §1

The test system of assay [9] is crabgrass (Digitaria sanguinalis). Kind of assay: Preemergence herbicidal activity. Particulars: 17.5 g/Ha; scored after 3 weeks; 0 no injury, 100 complete kill or no germination. Here is the method:
as §1

Assay [10] relates to pigweed (Amaranthus retroflexus). Kind of assay: Preemergence herbicidal activity. Particulars: 17.5 g/Ha; scored after 3 weeks; 0 no injury, 100 complete kill or no germination. Here is the method:
as §1

Assay [11] has as its system morningglory (Ipomoea hederacea). The assay can be described thus: Preemergence herbicidal activity. Particulars: 17.5 g/Ha; scored after 3 weeks; 0 no injury, 100 complete kill or no germination. Here is the method:
as §1

Assay [12] deals with wild oats (Avena fatua). Kind of assay: Preemergence herbicidal activity. The conditions noted are these: 17.5 g/Ha; scored after 3 weeks; 0 no injury, 100 complete kill or no germination. The procedure: as §1
In assay [13] the test system is cocklebur (Xanthium strumarium). The assay can be described thus: Postemergence herbicidal activity. The conditions noted are these: scored after 2 weeks, 0 no injury, 100 complete kill. Here is the method: (§2) Seeds of the desired test plant species were planted in Grace-Sierra MetroMix® 306 planting mixture, which typically has a pH of 6.0 to 6.8 and an organic matter content of about 30 percent, in plastic pots with a surface area of 64 square centimeters. When required to ensure good germination and healthy plants, a fungicide treatment and/or other chemical or physical treatment was applied. The plants were grown for 7-21 days in a greenhouse with an approximately 15 hr photoperiod which was maintained at about 23-29° C. during the day and 22-28° C. during the night. Nutrients and water were added on a regular basis and supplemental lighting was provided with overhead metal halide 1000 Watt lamps as necessary. The plants were employed for testing when they reached the first or second true leaf stage. A weighed amount of each test compound, determined by the highest rate to be tested, was placed in a 20 mL glass vial and was dissolved in 4 mL of a 97:3 v/v (volume/volume) mixture of acetone and dimethyl sulfoxide to obtain concentrated stock solutions. […] The concentrated stock solutions obtained were diluted with an aqueous mixture containing acetone, water, iso-propyl alcohol, dimethyl sulfoxide, Atplus 411F crop oil concentrate, and Triton X-155 surfactant (methylenebisdiamyl phenoxy polyethoxy ethanol) in a 48.5:39:10:1.5:1.0:0.02 v/v ratio to obtain spray solutions of known concentration. The solutions containing the highest concentration to be tested were prepared by diluting 2 mL aliquots of the stock solution with 13 mL of the mixture and lower concentrations were prepared by dilution of appropriate smaller portions of the stock solution. Approximately 1.5 mL aliquots of each solution of known concentration were sprayed evenly onto each of the test plant pots using a Devilbiss atomizer driven by compressed air pressure of 2 to 4 psi (140 to 280 kiloPascals) to obtain thorough coverage of each plant. Control plants were sprayed in the same manner with the aqueous mixture. In this test an application rate of 1 ppm results in the application of approximately 1 g/ha. The treated plants and control plants were placed in a greenhouse as described above and watered by sub-irrigation to prevent wash-off of the test compounds. After 2 weeks the condition of the test plants as compared with that of the untreated plants was determined visually and scored on a scale of 0 to 100 percent where 0 corresponds to no injury and 100 corresponds to complete kill.

Assay [14] relates to blackgrass (Alopecurus myosuroides). The assay can be described thus: Postemergence herbicidal activity. The conditions noted are these: scored after 2 weeks, 0 no injury, 100 complete kill. The procedure:
as §2

Assay [15] relates to velvetleaf (Abutilion theophrasti). Kind of assay: Postemergence herbicidal activity. Particulars: scored after 2 weeks, 0 no injury, 100 complete kill. The procedure:
as §2

For assay [16], the system named is wild buckwheat (Polygonum convolvulus). The assay can be described thus: Postemergence herbicidal activity. Particulars: scored after 2 weeks, 0 no injury, 100 complete kill. Here is the method:
as §2

The test system of assay [17] is chickweed (Stellaria media). Kind of assay: Postemergence herbicidal activity. The conditions noted are these: scored after 2 weeks, 0 no injury, 100 complete kill. Here is the method:
as §2

Another assay concerns viola (Viola tricolor). The assay can be described thus: Postemergence herbicidal activity. Particulars: scored after 2 weeks, 0 no injury, 100 complete kill. The procedure:
as §2

The subject of assay [18] is Rox orange sorghum (Sorghum bicolor). The assay can be described thus: Postemergence herbicidal activity. Particulars: scored after 2 weeks, 0 no injury, 100 complete kill. The procedure:
as §2

Assay [19] has as its system lambsquarters (Chenopodium album). The assay can be described thus: Postemergence herbicidal activity. Particulars: scored after 2 weeks, 0 no injury, 100 complete kill. Here is the method: as §2
The test system of assay [20] is giant foxtail (Setaria faberi). The assay can be described thus: Postemergence herbicidal activity. The conditions noted are these: scored after 2 weeks, 0 no injury, 100 complete kill. Here is the method: as §2
Assay [21] relates to pigweed (Amaranthus retroflexus). Kind of assay: Postemergence herbicidal activity. Particulars: scored after 2 weeks, 0 no injury, 100 complete kill. Here is the method:
as §2

The subject of assay [22] is morningglory (Ipomoea hederacea). Kind of assay: Postemergence herbicidal activity. The conditions noted are these: scored after 2 weeks, 0 no injury, 100 complete kill. The procedure:
as §2

Assay [23] deals with wild oats (Avena fatua). The assay can be described thus: Postemergence herbicidal activity. Particulars: scored after 2 weeks, 0 no injury, 100 complete kill. The procedure:
as §2

In the case of `COc1cc(OC)n2nc(NS(=O)(=O)c3c(OCC(F)(F)F)cccc3C(F)(F)F)nc2n1` [Compound 12], the “Preemergence herbicidal activity XANST” value in assay [1] stood at 80%. Moreover, the “Preemergence herbicidal activity ALOMY” value in assay [2] amounted to 70%. For the same compound, the “Preemergence herbicidal activity ABUTH” value in assay [3] was found to be 70%. Further, the “Preemergence herbicidal activity SORBI” value in assay [4] amounted to 98%. In assay [5], the “Preemergence herbicidal activity ECHCG” value came to 100%. For the same compound, the “Preemergence herbicidal activity EPHHL” value in assay [6] stood at 90%. For the same compound, the “Preemergence herbicidal activity CHEAL” value in [7] turned out to be 100%. Besides, in assay [8], the “Preemergence herbicidal activity SETFA” value is given as 90%. The “Preemergence herbicidal activity DIGSA” value in assay [9] is 80%. Besides, in assay [10], the “Preemergence herbicidal activity AMARE” value was 98%. The “Preemergence herbicidal activity IPOHE” value in [11] is 90%. For the same compound, the “Preemergence herbicidal activity AVEFA” value with wild oats (Avena fatua) [12] was determined as 30%. Also, the “Postemergence herbicidal activity XANST” value in assay [13] (62.5 ppm) is reported as 100%. The “Postemergence herbicidal activity ALOMY” value in [14] (62.5 ppm) was 60%. In [15] (62.5 ppm), the “Postemergence herbicidal activity ABUTH” value is 98%. The “Postemergence herbicidal activity POLCO” value in assay [16] (62.5 ppm) was 98%. Further, the “Postemergence herbicidal activity STEME” value in [17] (62.5 ppm) is recorded as 90%. In the assay on viola (Viola tricolor) (62.5 ppm), the “Postemergence herbicidal activity VIOTR” value is 100%. Further, the “Postemergence herbicidal activity SORBI” value in [18] (62.5 ppm) turned out to be 90%. Further, in [19] (62.5 ppm), the “Postemergence herbicidal activity CHEAL” value amounted to 100%. The “Postemergence herbicidal activity SETFA” value in [20] (62.5 ppm) was determined as 98%. Also, the “Postemergence herbicidal activity AMARE” value in [21] (62.5 ppm) worked out at 100%. Besides, in assay [22] (62.5 ppm), the “Postemergence herbicidal activity IPOHE” value worked out at 98%. In addition, the “Postemergence herbicidal activity AVEFA” value in the assay on wild oats (Avena fatua) [23] (62.5 ppm) was determined as 70%.

As to `COc1cc(OC)n2nc(NS(=O)(=O)c3c(I)ccnc3OC)nc2n1` [Compound 17], the “Preemergence herbicidal activity XANST” value in assay [1] is 65%. For the same compound, the “Preemergence herbicidal activity ALOMY” value in [2] turned out to be 99%. Besides, in [3], the “Preemergence herbicidal activity ABUTH” value worked out at 75%. In assay [4], the “Preemergence herbicidal activity SORBI” value worked out at 99%. Besides, the “Preemergence herbicidal activity ECHCG” value in assay [5] came to 100%. Further, the “Preemergence herbicidal activity EPHHL” value in assay [6] was determined as 100%. The “Preemergence herbicidal activity CHEAL” value in assay [7] worked out at 100%. In addition, the “Preemergence herbicidal activity SETFA” value in assay [8] is given as 100%. In assay [9], the “Preemergence herbicidal activity DIGSA” value stood at 100%. Besides, the “Preemergence herbicidal activity AMARE” value in assay [10] came out at 100%. Moreover, the “Preemergence herbicidal activity IPOHE” value in [11] is listed as 60%. In addition, the “Preemergence herbicidal activity AVEFA” value in the assay with wild oats (Avena fatua) [12] came out at 90%. In addition, the “Postemergence herbicidal activity XANST” value in assay [13] (15.6 ppm) is recorded as 90%. The “Postemergence herbicidal activity ALOMY” value in assay [14] (15.6 ppm) is listed as 90%. In addition, the “Postemergence herbicidal activity ABUTH” value in assay [15] (15.6 ppm) stood at 78%. Also, the “Postemergence herbicidal activity POLCO” value in assay [16] (15.6 ppm) was determined as 75%. Besides, the “Postemergence herbicidal activity STEME” value in assay [17] (15.6 ppm) was 75%. For the same compound, the “Postemergence herbicidal activity VIOTR” value with viola (Viola tricolor) (15.6 ppm) worked out at 98%. In addition, the “Postemergence herbicidal activity SORBI” value in [18] (15.6 ppm) is 90%. Besides, the “Postemergence herbicidal activity CHEAL” value in assay [19] (15.6 ppm) came out at 100%. Further, the “Postemergence herbicidal activity SETFA” value in [20] (15.6 ppm) is on record as 90%. The “Postemergence herbicidal activity AMARE” value in assay [21] (15.6 ppm) is 100%. Besides, the “Postemergence herbicidal activity IPOHE” value in [22] (15.6 ppm) stood at 70%. The “Postemergence herbicidal activity AVEFA” value in the assay with wild oats (Avena fatua) [23] (15.6 ppm) is given as 90%.
